Entries after “also recorded” stand apart in the source; their conditions may differ.
Columns and labels:
[1] = tested on: tumors from the HER2 transgenic cell line HER-3081-3-10; experiment: Growth of tumors from cell line HER-3081-3-10 in mice; assay type: in vivo, mouse; settings: 4D5, 7C2 30 mg/kg intraperitoneally for 4 weeks; taxol 15.6 mg/kg subcutaneously daily for 5 days; tumors 100 mm^3, FIG. 16
Protocol: The efficacy of taxol and anti-HER2 monclonal antibodies 7C2 and 4D5 in preventing tumor growth was assessed (FIG. 16). At day 0, 6-8 week old FVP mice were innoculated under the skin with 2 million tumor cells from cell line HER-3081-3-10. When the tumors reached 100 mm^3 the mice were separated into 5 groups with 9 animals per group. Antibodies 4D5 and 7C2 were given intraperitoneally at 30 mg/kg for 4 weeks. Taxol was given subcutaneously daily for 5 days at 15.6 mg/kg. Tumors were measured during the study at regular intervals.

[2] = tested on: HER-5, HER-3081-3-4, HER-3081-3-10 and HER-3081-3-19 cells; experiment: Mitogen responsiveness of HER2 transgenic cell lines, crystal violet; assay type: cell-based, mouse; settings: heregulin 0.005-5 nM or EGF 0.05-50 ng/ml, 4 days, FIG. 11
Protocol: Briefly, cells were detached from a T75 flask with Dissociation Solution (Sigma) and plated in fibronectin coated 96 well plates. Approximately 10,000 cells were plated per well in 0.1 ml of fully supplemented media. […] After 4 days plates were washed twice with PBS (pH 7.5), stained with crystal violet (0.5% in methanol), dried, solubilized and the optical density measured at a wavelength of 540 nm on a plate reader, essentially as described in Sugarman et al. Science 230:943-945 (1985).

[3] = tested on: MMTV-HER2-transgenic tumors transplanted into the mammary fat pad of FVB mice; experiment: Transplanted MMTV-HER2-transgenic tumor model in FVB mice; assay type: in vivo, mouse
Description: Two mm3 pieces of MMTV-HER2-transgenic tumors were transplanted into the mammary fat pad of FVB mice.
All animals received five doses.
The tumor was surgically resected under aseptic conditions and minced into small pieces, 2 mm^3, which were then transplanted into the mammary fat pad of wild-type FVB female mice.

CC(=O)O[C@H]1C(=O)[C@@]2(C)[C@H]([C@H](OC(=O)c3ccccc3)[C@]3(O)C[C@H](OC(=O)[C@H](O)[C@@H](NC(=O)c4ccccc4)c4ccccc4)C(C)=C1C3(C)C)[C@]1(OC(C)=O)CO[C@@H]1C[C@@H]2O [taxol, paclitaxel]
reduction of tumor growth [1]: more effective than either of the antibodies alone

heregulin
proliferation in response to mitogen [2]: only the HER-5 cell line proliferated; also recorded: mitogens only for cell line HER-5

RITUXAN®: an unrelated antibody, used as negative control
efficacy on tumor size ([3]; FIG. 7, unconjugated control antibody): no efficacy | effect on tumor growth ([3]; FIG. 8, control antibody and control conjugate): Neither unconjugated RITUXAN® (control MAb E25) nor RITUXAN®-DM1 had any obvious effect on tumor growth

From patent US6632979B2, “Rodent HER2 tumor model” (Genentech, Inc., priority 2000, dated 2003)
